System: NLPR3 inflammasome
Assay: IL-1β production by LPS activated monocytes
Assay type: cell-based, human
Conditions: anti-IL-10R antibody
Method: CD14^+ monocytes were isolated from PBMC using a pan monocyte isolation kit (Miltenyi Biotec, Bergisch Gladbach, Germany) and plated in 96 flat microtiter wells at 2×10^5/200 μL per well and cultured in the presence of LPS. The cells were cultured further in the presence of Z-YVADfmk (20 microMol), MMC950 (10 microMol), IL-10 (10 ng/mL) or various concentrations of single- or pooled donor CD4^IL-10 cell supernatants as summarized in Table 1.
The supernatants were obtained from single- or pooled donor CD4^IL-10 cells activated for 72 hours with a combination of CD3 and CD28 antibodies as described previously. (Andolfi et al. 2012, Mol. Therapy Vol. 20, 1778-1790, Locafaro et al. Mol Ther 2017, 25, 2254) In some cases (FIGS. 19C and 19D), the monocytes were incubated with LPS in combination with the NLPR3 inflammasome activator nigericin (“NIG”) which was added during the last 30 minutes of the LPS activation.
The NLPR3 inflammasome was activated by LPS, resulting in the production of mature caspase 1 and the biologically active forms of IL-1β and IL-18.

| Compound | effect of anti-IL-10 receptor antibody on the inhibitory effects |
| --- | --- |
| Z-YVADfmk [Z-VADfmk] | no effect |
| CC(C)(O)c1coc(S(=O)(=O)NC(=O)Nc2c3c(cc4c2CCC4)CCC3)c1 [MCC950] | no effect |

From patent US20250177525A1, “POLYDONOR CD4+ T CELLS EXPRESSING IL-10 AND USES THEREOF” (TR1X, INC., priority 2021, published 2025)
